Experimental data taken from EPA's ToxValDB 9.5 (doi:10.2903/j.efsa.2016.4500).
In brackets after ≈: the same amount, converted by molar mass.

Assays:
Folsomia candida = conditions: chronic/long-term; duration: 28 days; reproduction
Apis mellifera = conditions: acute, mortality
Canidae = conditions: chronic; duration: 1 years; oral; Dog Other; gross pathology
Oryctolagus sp. = conditions: reproduction developmental; clinical signs
Pimephales promelas = conditions: acute; duration: 96 hours; mortality
Rattus norvegicus = conditions: for LD50: acute, mortality
Tagia sp. = conditions: chronic/long-term; duration: 56 days; reproduction
Bibionidae = conditions: chronic/long-term; duration: 28 days
Oncorhynchus mykiss = conditions: acute; duration: 96 hours; mortality
Aphidius rhopalosiphi = assay: LR50; higher = less toxic; conditions: not reported; mortality
Typhlodromus pyri = assay: LR50; higher = less toxic; conditions: not reported; mortality
[1] = chronic, duration: 2 years, organ weight

Compound: Oc1ccc(Cl)cc1Cl [2,4-Dichlorophenol]
- NOEC (Folsomia candida): 0.63 mg/kg

Compound: O=C(O)COc1ccc(Cl)cc1Cl [2,4-Dichlorophenoxyacetic acid]
- LD50 (Apis mellifera; dermal): > 100 µg/piece
- LD50 (Apis mellifera; oral, unspecified): 94 µg/piece
- NOAEL (Canidae): 2.04 mg/kg-day
- NOAEL (Oryctolagus sp.): 30 mg/kg-day
- LC50 (Pimephales promelas): 100 µg/mL (≈ 452 µM)
- LD50 (Rattus norvegicus): 486 mg/kg
- NOAEL (Rattus norvegicus; chronic): 20.6 mg/kg-day
- NOAEL (Rattus norvegicus; [1]): 2.48 mg/kg-day
- NOEC (Tagia sp.): 62.5 mg/kg

Compound: O=C(O)CCCOc1ccc(Cl)cc1Cl [2,4-Dichlorophenoxybutyric acid]
- LD50 (Apis mellifera; dermal): > 100 µg/piece
- LD50 (Apis mellifera; oral, unspecified): > 100 µg/piece
- NOEC (Bibionidae): 24.6 mg/kg
- NOAEL (Canidae): 2.04 mg/kg-day
- LD50 (Colinus virginianus; acute, oral, mortality): 1540 mg/kg
- NOEC (Colinus virginianus; chronic): 101 mg/kg-day
- LC50 (Oncorhynchus mykiss): 3 µg/mL (≈ 12 µM)
- NOAEL (Oryctolagus sp.): 30 mg/kg-day
- LD50 (Rattus norvegicus; oral): 1470 mg/kg
- NOAEL (Rattus norvegicus; [1]): 2.48 mg/kg-day
- NOAEL (Rattus norvegicus; reproduction developmental, reproduction): 22.5 mg/kg-day
- NOEC (Tagia sp.): 82.1 mg/kg
- LR50 (Aphidius rhopalosiphi): > 1800 g/ha
- LR50 (Typhlodromus pyri): > 1800 g/ha
